Laboratory results: paper PMC12389534, “Unlocking Therapeutic Potential of Novel Thieno-Oxazepine Hybrids as Multi-Target Inhibitors of AChE/BChE and Evaluation Against Alzheimer’s Disease: In Vivo, In Vitro, Histopathological, and Docking Studies” (Pharmaceuticals, 2025)

Tests used:
[1] = test system: Caspase-1; test: Caspase-1 gene expression (RT-qPCR); type: in vivo, rat; design: reduction of Caspase-1 levels: concentration or dose not given beside the values; details: AlCl3-induced AD rats; for Caspase-1: gene expression, mean ± SE, n = 6
Method: (§1) The brain tissues of the rats were removed and rigorously washed in isotonic saline 24 h after they were euthanized following the last behavioral test. For histological investigation, four brains per group were preserved for the whole night in 10% neutral buffered formalin. The remaining six brains were split into two sections each. In order to create a 10% homogenate (w/v), the first component was instantaneously homogenized using an ice-cold solution that included 300 mM sucrose and 50 mM Tris-HCl (pH 7.4). The homogenate was centrifuged at 1800× g for 10 min at 4 °C for biochemical tests, and the supernatant was thereafter kept at −20 °C. The second portion was set aside for use in RT-PCR analysis at −80 °C [94].
(§2) See Supplementary Information.

[2] = molecular target: T1, BChE (Homo sapiens, UniProt P06276); test: biochemical; details: for IC50: fluorescence kit, triplicate; for Selectivity Index BChE/AChE: ratio of IC50 BChE to IC50 AChE, <1 = preferential BChE inhibition
T1 construct: purchased Invitrogen EIABCHEF
Method: Using an Invitrogen BChE test kit (Catalog #EIABCHEF), the assay was performed in compliance with the supplier’s instructions. The study was conducted using black 96-well plates. […] Each well was then filled with 50 μL of the reaction mixture, which consisted of fluorescence detection reagent and butyrylthiocholine iodide in assay buffer. The plate was then left to incubate for 20 min at room temperature. Finally, excitation at 390 nm was used to observe emission at 510 nm using a microplate reader. Background fluorescence was further eliminated for each data point.

[3] = test system: HO-1; test: HO-1 mRNA expression (RT-qPCR); type: in vivo, rat; details: AlCl3-induced AD rats; for HO-1: mRNA expression in brain tissue, mean ± SE, n = 6
Method: as §1, §2

[4] = test system: Wnt3a; test: Brain Wnt3a level; type: in vivo, rat; details: AlCl3-induced AD rats; for Wnt3a (ng/g Tissue): mean ± SE, n = 6
Method: as §1, §2

[5] = test system: SOD; test: Brain SOD activity (colorimetric); type: in vivo, rat; details: brain tissue, AlCl3-induced AD rats; mean ± SE, n = 6
Method: as §1
(§3) The SOD enzyme activity was estimated using the Marklund et al. method, which is founded on the enzyme’s capacity to decrease the nitro blue tetrazolium dye at a wavelength of 540 nm. To evaluate the TAC, a colorimetric approach was employed to estimate the amount of hydrogen peroxide that remains after 3,5-dichloro-2-hydroxybenzene sulphonate is converted to a colored product at 660 nm.

[6] = test system: BDNF; test: Brain BDNF level (ELISA); type: in vivo, rat; details: AlCl3-induced AD rats; for BDNF (ng/mL): brain tissue, mean ± SE, n = 6
Method: as §1, §2

[7] = test system: 5-HT; test: Brain 5-HT level (fluorometric); type: in vivo, rat; details: AlCl3-induced AD rats; for 5-HT (ng/g Tissue): brain tissue, mean ± SE, n = 6
Method: as §1
(§4) Brain monoamine levels were promptly assessed following the rats’ euthanasia to prevent changes in the substance’s concentration. Dopamine (DA), norepinephrine (NE), and serotonin (5-HT) fluorometric tests were conducted on brain tissue homogenate using the Ciarlone method. […] The concentrations were articulated as nanograms per gram of fresh tissue using the fluorescence of reference solutions [95].

[8] = test system: DA; test: Brain DA level (fluorometric); type: in vivo, rat; details: AlCl3-induced AD rats; for DA (ng/g Tissue): brain tissue, mean ± SE, n = 6
Method: as §1, §4

[9] = test system: NE; test: Brain NE level (fluorometric); type: in vivo, rat; details: AlCl3-induced AD rats; for NE (nmol/g Tissue): brain tissue, mean ± SE, n = 6
Method: as §1, §4

[10] = test system: TLR4; test: TLR4 mRNA expression (RT-qPCR); type: in vivo, rat; design: reduction of TLR4 mRNA expression: concentration or dose not given beside the values; details: AlCl3-induced AD rats; for TLR4: mRNA expression level, mean ± SE, n = 6
Method: as §1, §2

[11] = test system: TNF-α; test: Brain TNF-α level (ELISA); type: in vivo, rat; details: AlCl3-induced AD rats; for TNF-α (pg/g Tissue): mean ± SE, n = 6
Method: as §1, with “[94]. […]” for “[94].”

[12] = test system: IL-1β; test: Brain IL-1β level (ELISA); type: in vivo, rat; design: reduction in IL-1β levels: concentration or dose not given beside the values; details: AlCl3-induced AD rats; for IL-β (pg/g Tissue): mean ± SE, n = 6
Method: as §1, with “[94]. […]” for “[94].”

[13] = test system: Nrf-2; test: Nrf-2 mRNA expression (RT-qPCR); type: in vivo, rat; details: AlCl3-induced AD rats; for Nrf-2: mRNA expression in brain tissue, mean ± SE, n = 6
Method: as §1, §2

[14] = test system: BACE1; test: Brain BACE1 level (ELISA); type: in vivo, rat; design: reduction of BACE1 levels: concentration or dose not given beside the values; details: AlCl3-induced AD rats; for BACE1 (ng/mL): mean ± SE, n = 6
Method: as §1, with “[94]. […]” for “[94].”

[15] = test system: β-catenin; test: Brain β-catenin level; type: in vivo, rat; details: AlCl3-induced AD rats; for β-Catenin (ng/L): mean ± SE, n = 6
Method: as §1, §2

[16] = test system: Bcl-2; test: Bcl-2 gene expression (RT-qPCR); type: in vivo, rat; details: AlCl3-induced AD rats; for Bcl-2: gene expression, mean ± SE, n = 6
Method: as §1, §2

[17] = test system: MDA; test: Brain MDA content (thiobarbituric acid method); type: in vivo, rat; design: reduction in MDA brain content: concentration or dose not given beside the values; details: AlCl3-induced AD rats; for MDA (nmol/g Tissue): brain tissue, mean ± SE, n = 6
[18] = test system: NLRP3; test: NLRP3 mRNA expression (RT-qPCR); type: in vivo, rat; design: reduction of NLRP3 mRNA expression: concentration or dose not given beside the values; details: AlCl3-induced AD rats; for NLRP3: mRNA expression level, mean ± SE, n = 6
Method: as §1, §2

[19] = test system: GSK3β; test: GSK3β gene expression (RT-qPCR); type: in vivo, rat; details: AlCl3-induced AD rats; for GSK3β: gene expression, mean ± SE, n = 6
Method: as §1, §2

[20] = test system: TAC; test: Brain TAC (colorimetric); type: in vivo, rat; details: AlCl3-induced AD rats; for TAC (µmol/g Tissue): brain tissue, mean ± SE, n = 6
Method: as §1, §3

[21] = test system: AChE; type: in vivo; design: reduction in AChE levels: concentration or dose not given beside the values; details: AlCl3-induced AD rats; for AChE (ng/g Tissue): brain tissue, mean ± SE, n = 6; for reduction in AChE levels: brain
[22] = test system: BAX/Bcl-2; test: BAX/Bcl-2 ratio of gene expression; type: in vivo, rat; details: AlCl3-induced AD rats
Method: as §1, §2

[23] = test system: BAX; test: BAX gene expression (RT-qPCR); type: in vivo, rat; details: gene expression; AlCl3-induced AD rats; mean ± SE, n = 6
Method: as §1, §2

[24] = test system: NFκβ; test: NFκβ mRNA expression (RT-qPCR); type: in vivo, rat; design: reduction of NFκβ mRNA expression: concentration or dose not given beside the values; details: AlCl3-induced AD rats; for NFκβ: mRNA expression level, mean ± SE, n = 6
Method: as §1, §2

T1 sequence (P06276 29-602): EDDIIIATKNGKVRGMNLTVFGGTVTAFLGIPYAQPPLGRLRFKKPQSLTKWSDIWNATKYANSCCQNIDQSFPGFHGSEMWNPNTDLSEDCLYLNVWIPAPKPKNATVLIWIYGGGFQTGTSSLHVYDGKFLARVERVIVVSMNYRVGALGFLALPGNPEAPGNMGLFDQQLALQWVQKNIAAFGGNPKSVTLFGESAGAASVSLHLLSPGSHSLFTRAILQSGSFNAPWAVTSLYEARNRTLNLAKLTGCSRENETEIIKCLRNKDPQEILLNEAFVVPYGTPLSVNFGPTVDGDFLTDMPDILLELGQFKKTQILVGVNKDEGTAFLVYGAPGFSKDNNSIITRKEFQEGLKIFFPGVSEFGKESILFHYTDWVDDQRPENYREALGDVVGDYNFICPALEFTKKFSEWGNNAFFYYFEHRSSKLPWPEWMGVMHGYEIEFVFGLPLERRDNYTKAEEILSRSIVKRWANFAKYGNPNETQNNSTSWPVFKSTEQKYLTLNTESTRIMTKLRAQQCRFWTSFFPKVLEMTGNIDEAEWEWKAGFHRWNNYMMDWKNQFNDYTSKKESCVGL

O=C1CN(c2ccc(Cl)cc2)C(=O)c2c(sc3c2CCCCC3)O1 [Compound 12, 4-(4-Chlorophenyl)-3,4,7,8,9,10-hexahydro-6H-cyclohepta[4,5]thieno[3,2-f][1,4]oxazepine-2,5-dione]
reduction of Caspase-1 levels [1]: 52.3%
Caspase-1 [1]: 4.54 ± 0.090 ^abc
IC50 [2]: 65.9 ± 2.27 µM
Selectivity Index BChE/AChE [2]: 6.04
elevation of HO-1 mRNA expression [3]: 5.7 fold
HO-1 [3]: 0.69 ± 0.020 ^abc
elevation of Wnt3a levels [4]: 6.3 fold
Wnt3a (ng/g Tissue) [4]: 0.76 ± 0.01 ^abc ng/g Tissue
SOD(U/g) [5]: 2.15 ± 0.39 ^abc U/g
elevation of BDNF levels [6]: 2 fold
BDNF (ng/mL) [6]: 83.62 ± 0.06 ^abc ng/mL
elevation of 5-HT levels [7]: 2.8 fold
5-HT (ng/g Tissue) [7]: 5.07 ± 0.18 ^abc ng/g Tissue
elevation of DA levels [8]: 3.2 fold
DA (ng/g Tissue) [8]: 38.37 ± 2.86 ^abc ng/g Tissue
rise in the level of NE [9]: 2.2 times
NE (nmol/g Tissue) [9]: 420.5 ± 2.86 ^abc nmol/g Tissue
reduction of TLR4 mRNA expression [10]: 71.4%
TLR4 [10]: 2.75 ± 0.06 ^abc
decline in TNF-α levels [11]: 62.5%
TNF-α (pg/g Tissue) [11]: 65.98 ± 0.91 ^abc pg/g Tissue
reduction in IL-1β levels [12]: 53.9%
IL-β (pg/g Tissue) [12]: 54.51 ± 1.3 ^abc pg/g Tissue
elevation of Nrf-2 mRNA expression [13]: 4 fold
Nrf-2 [13]: 0.64 ± 0.020 ^abc
reduction of BACE1 levels [14]: 53.9%
BACE1 (ng/mL) [14]: 13.68 ± 0.2 ^abc ng/mL
elevation of β-catenin levels [15]: 6.3 fold
β-Catenin (ng/L) [15]: 9.91 ± 0.15 ^abc ng/L
upregulation of Bcl-2 gene expression [16]: 6.8 fold
Bcl-2 [16]: 0.82 ± 0.020 ^abc
reduction in MDA brain content [17]: 38%
MDA (nmol/g Tissue) [17]: 72.02 ± 0.05 ^abc nmol/g Tissue
reduction of NLRP3 mRNA expression [18]: 69.9%
NLRP3 [18]: 3.21 ± 0.12 ^abc
reduction of GSK3β gene expression [19]: 47.4%
GSK3β [19]: 5.36 ± 0.07 ^abc
improvement of TAC levels [20]: approximately 3 times
TAC (µmol/g Tissue) [20]: 29.33 ± 0.57 ^abc µmol/g Tissue
AChE (ng/g Tissue) [21]: 35.66 ± 0.19 ^abc ng/g Tissue
reduction in AChE levels [21]: 47%
BAX/Bcl-2 Ratio [22]: 5.91
BAX [23]: 4.85 ± 0.110 ^abc
reduction of NFκβ mRNA expression [24]: 49.2%
NFκβ [24]: 4.30 ± 0.14 ^abc

N#Cc1ccc(N2CC(=O)Oc3sc4c(c3C2=O)CCCCC4)cc1 [Compound 13, 4-(2,5-Dioxo-2,3,7,8,9,10-hexahydro-6H-cyclohepta[4,5]thieno[3,2-f][1,4]oxazepin-4(5H)-yl)benzonitrile]
reduction of Caspase-1 levels [1]: 59.5%
Caspase-1 [1]: 3.85 ± 0.070 ^abc
IC50 [2]: 4.22 ± 0.14 µM
Selectivity Index BChE/AChE [2]: 0.84
elevation of HO-1 mRNA expression [3]: 6.2 fold
HO-1 [3]: 0.75 ± 0.010 ^abc
elevation of Wnt3a levels [4]: 7 fold
Wnt3a (ng/g Tissue) [4]: 0.84 ± 0.01 ^abc ng/g Tissue
SOD(U/g) [5]: 2.53 ± 0.25 ^abc U/g
elevation of BDNF levels [6]: 2.4 fold
BDNF (ng/mL) [6]: 104.9 ± 0.07 ^abc ng/mL
elevation of 5-HT levels [7]: 4.1 fold
5-HT (ng/g Tissue) [7]: 7.39 ± 0.1 ^abc ng/g Tissue
elevation of DA levels [8]: 4.1 fold
DA (ng/g Tissue) [8]: 48.65 ± 2.3 ^abc ng/g Tissue
rise in the level of NE [9]: 2.4 times
NE (nmol/g Tissue) [9]: 449.6 ± 2.3 ^abc nmol/g Tissue
reduction of TLR4 mRNA expression [10]: 57.5%
TLR4 [10]: 4.09 ± 0.27 ^abc
decline in TNF-α levels [11]: 70.2%
TNF-α (pg/g Tissue) [11]: 52.38 ± 0.59 ^abc pg/g Tissue
reduction in IL-1β levels [12]: 61.3%
IL-β (pg/g Tissue) [12]: 45.79 ± 1.34 ^abc pg/g Tissue
elevation of Nrf-2 mRNA expression [13]: 4.8 fold
Nrf-2 [13]: 0.78 ± 0.010 ^abc
reduction of BACE1 levels [14]: 61.7%
BACE1 (ng/mL) [14]: 11.35 ± 0.31 ^abc ng/mL
elevation of β-catenin levels [15]: 7.7 fold
β-Catenin (ng/L) [15]: 11.67 ± 0.13 ^abc ng/L
upregulation of Bcl-2 gene expression [16]: 6.5 fold
Bcl-2 [16]: 0.79 ± 0.020 ^abc
reduction in MDA brain content [17]: 54.7%
MDA (nmol/g Tissue) [17]: 52.58 ± 0.08 ^abc nmol/g Tissue
reduction of NLRP3 mRNA expression [18]: 73.2%
NLRP3 [18]: 2.86 ± 0.11 ^abc
GSK3β [19]: 3.63 ± 0.04 ^abc
improvement of TAC levels [20]: ~3.4 times
TAC (µmol/g Tissue) [20]: 32.9 ± 1.22 ^abc µmol/g Tissue
AChE (ng/g Tissue) [21]: 24.35 ± 0.8 ^abc ng/g Tissue
reduction in AChE levels [21]: 63.8%
BAX/Bcl-2 Ratio [22]: 7.34
BAX [23]: 5.80 ± 0.120 ^abc
reduction of NFκβ mRNA expression [24]: 58.8%
NFκβ [24]: 3.49 ± 0.07 ^abc
